Laboratory results published in PubChem BioAssay AID1918932 (Molecular Pharmacology Branch, DTP, NCI, 2023).

System: 171881-019-R-J1-PDC complex spheroid viability
Test: Anticancer human tumor 171881-019-R-J1-PDC patient-derived invasive breast carcinoma cell line growth inhibition
Conditions: for IC50: curve of first compound; for viability, T/C: stronger effect = lower value
From the text: Multicellular complex tumor spheroid response to LSD1 Inhibitor Iadademstat in combination with a variety of drugs and investigational agents in selected tumor cell lines
The current study was undertaken to assess response to LSD1 inhibitors in combination with standard-of-care drugs and investigational agents in solid tumor complex spheroid models as well as in the K-562 leukemia. Complex spheroids include a stromal component modeled by human endothelial cells (HUVEC) and fibroblasts modeled by human mesenchymal stem cells (MSCs). The concentration ranges selected for each drug and investigational agent were based upon clinically achievable concentrations if the clinical Cmax of the agent was known.
Compounds. The drugs and investigational agents used in this study are listed on Table 1. All of the agents used, including staurosporine (NSC755774) and gemcitabine (NSC613327), were obtained from the Developmental Therapeutics Program, NCI. FDA-approved anticancer drugs are available from the NCI at http://dtp.nci.nih.gov/branches/dscb/oncology_drugset_explanation.html. Drugs and investigational agents were >95% pure by proton nuclear magnetic resonance (NMR) and liquid chromatography/mass spectrometry (LC/MS). Stock solutions were prepared at 400x in DMSO, stored at -70 degrees C, and diluted in fresh medium prior to their use. The final concentration of DMSO in cell culture wells never exceeded 0.25% (v/v). The FDA-approved anticancer drug set is available from the Developmental Therapeutics Program at https://dtp.cancer.gov/organization/dscb/obtaining/available_plates.htm. All drugs and investigational agents were tested over a range starting from a high concentration at or near the clinical Cmax and decreasing in half-log increments. If the clinical Cmax for an agent had not been determined, the highest concentration tested was 10 microM.
Cell Lines. The patient-derived cancer cell (PDC) lines: 292921-168-R-J2-PDC, K24384-001-R-PDC, and 521955-158-R2-J5-PDC pancreatic carcinomas, 556581-035-R-J1 ovarian carcinoma, 324938-238-R-J1-PDC, 855422-203-R-J1-PDC and 883617-216-R-J1-PDC urothelial bladder carcinomas, 743489-274-T-PDC renal cell carcinoma, 138582-R-J1 Merkel cell tumor, K60290-347-R-J1 and K57222-313-R-J1-PDC glioblastomas, 653999-131-R-J2-PDC, LG0703-F948-PDC, and 349418-098-R-PDC non-small cell lung carcinomas, 885512-296-R-J2-PDC, 171881-019-R-J1-PDC breast carcinomas and 186277-243-T-J2-PDC and 233499-124-R-J2-PDC colon carcinomas were obtained from the NCI Patient-Derived Models Repository (PDMR, https://pdmr.cancer.gov). The established cell lines NCI/ADR-RES (RRID:CVCL_14520 and OVCAR-5 (RRID:CVCL_1628) ovarian carcinomas, 786-O (RRID:CVCL_1051) and A498 (RRID:CVCL_A498) renal cell carcinoma, NCI-H211 (ATCC, cat. CRL-5824; RRID:CVCL_1529), NCI-H196 (ATCC, cat. CRL-5823, RRID:CVCL_1509), SW 1271 (ATCC, cat. CRL-2177, RRID:CVCL_1716) and NCI-H1876 (ATCC, cat. CRL-5902, RRID:CVCL_1503) small cell lung carcinomas, MDA-MB-231 (RRID:CVCL_0062) and MDA-MB-468 (RRID:CVCL_0419)breast carcinomas (10-12). Pooled donor human umbilical vein endothelial cells (HUVEC, Lonza, cat. CC-2519) and human mesenchymal stem cells (hMSC, Lonza, cat. PT-2501) were purchased from Lonza (Walkersville, MD).
Cell Culture. All cells were maintained in an incubator at 37 degrees C and 5% CO2 with 95% humidity. The PDC lines were cultured according to standard operating procedures established by the NCI PDMR (https://pdmr.cancer.gov). Briefly all PDCs were thawed and cultured in Matrigel-coated flasks prepared with a working solution of 1X Ham's F-12 nutrient mix, without supplementation (Invitrogen, Waltham, MA, cat. 11765054), 100 U/mL penicillin-streptomycin (Invitrogen, cat. 15140122), and 2.5% Matrigel (Corning Inc., Corning, NY, cat. 354248) for the first three passages. […]

[1] = second compound 0.1 µM, first compound 0.000949 µM
[2] = second compound 0.1 µM, first compound 0.003 µM
[3] = second compound 0.1 µM, first compound 0.00949 µM
[4] = second compound 0.1 µM, first compound 0.03 µM
[5] = second compound 0.1 µM, first compound 0.0949 µM
[6] = second compound 0.1 µM, first compound 0.3 µM
[7] = second compound 0.316 µM, first compound 0.000949 µM
[8] = second compound 0.316 µM, first compound 0.003 µM
[9] = second compound 0.316 µM, first compound 0.00949 µM
[10] = second compound 0.316 µM, first compound 0.03 µM
[11] = second compound 0.316 µM, first compound 0.0949 µM
[12] = second compound 0.316 µM, first compound 0.3 µM
[13] = second compound 1 µM, first compound 0.000949 µM
[14] = second compound 1 µM, first compound 0.003 µM
[15] = second compound 1 µM, first compound 0.00949 µM
[16] = second compound 1 µM, first compound 0.03 µM
[17] = second compound 1 µM, first compound 0.0949 µM
[18] = second compound 1 µM, first compound 0.3 µM
[19] = second compound 3.16 µM, first compound 0.000949 µM
[20] = second compound 3.16 µM, first compound 0.003 µM
[21] = second compound 3.16 µM, first compound 0.00949 µM
[22] = second compound 3.16 µM, first compound 0.03 µM
[23] = second compound 3.16 µM, first compound 0.0949 µM
[24] = second compound 3.16 µM, first compound 0.3 µM
[25] = second compound 10 µM, first compound 0.000949 µM
[26] = second compound 10 µM, first compound 0.003 µM
[27] = second compound 10 µM, first compound 0.00949 µM
[28] = second compound 10 µM, first compound 0.03 µM
[29] = second compound 10 µM, first compound 0.0949 µM
[30] = second compound 10 µM, first compound 0.3 µM
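Also: spheroids exposed to agents for 7 days after 3 days growth.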

CCc1c2c(nc3ccc(O)cc13)-c1cc3c(c(=O)n1C2)COC(=O)[C@]3(O)CC + NC1CC1c1ccc(-c2cccc(O)c2)cc1
IC50 (second compound 0.1 µM): < 0.000949 µM
IC50 (second compound 0.316 µM): < 0.000949 µM
IC50 (second compound 1 µM): < 0.000949 µM
IC50 (second compound 3.16 µM): < 0.000949 µM
IC50 (second compound 10 µM): < 0.000949 µM
viability, T/C [1]: 44.7%
viability, T/C [2]: 30.8%
viability, T/C [3]: 25.1%
viability, T/C [4]: 15.4%
viability, T/C [5]: 21.5%
viability, T/C [6]: 19.3%
viability, T/C [7]: 49%
viability, T/C [8]: 37.4%
viability, T/C [9]: 17.8%
viability, T/C [10]: 20%
viability, T/C [11]: 16.7%
viability, T/C [12]: 22.7%
viability, T/C [13]: 36.3%
viability, T/C [14]: 22.2%
viability, T/C [15]: 8.77%
viability, T/C [16]: 16.8%
viability, T/C [17]: 13.8%
viability, T/C [18]: 18.6%
viability, T/C [19]: 22.5%
viability, T/C [20]: 22.6%
viability, T/C [21]: 5.26%
viability, T/C [22]: 13.8%
viability, T/C [23]: 14.6%
viability, T/C [24]: 5.74%
viability, T/C [25]: 26.9%
viability, T/C [26]: 14.8%
viability, T/C [27]: 2.56%
viability, T/C [28]: 8.5%
viability, T/C [29]: 7.12%
viability, T/C [30]: 4.11%

Nc1ccn(C2OC(CO)C(O)C2(F)F)c(=O)n1 (stereo not given) + NC1CC1c1ccc(-c2cccc(O)c2)cc1
IC50 (second compound 0.1 µM): > 0.3 µM
IC50 (second compound 0.316 µM): > 0.3 µM
IC50 (second compound 1 µM): > 0.3 µM
IC50 (second compound 3.16 µM): > 0.3 µM
IC50 (second compound 10 µM): > 0.3 µM
viability, T/C [1]: 65.1%
viability, T/C [2]: 61.8%
viability, T/C [3]: 57.8%
viability, T/C [4]: 61.2%
viability, T/C [5]: 65%
viability, T/C [6]: 64.1%
viability, T/C [7]: 70.9%
viability, T/C [8]: 63.8%
viability, T/C [9]: 59.7%
viability, T/C [10]: 60.9%
viability, T/C [11]: 66.6%
viability, T/C [12]: 64.1%
viability, T/C [13]: 76.6%
viability, T/C [14]: 62.6%
viability, T/C [15]: 59.5%
viability, T/C [16]: 62.2%
viability, T/C [17]: 62%
viability, T/C [18]: 63.8%
viability, T/C [19]: 74.8%
viability, T/C [20]: 58.3%
viability, T/C [21]: 57.8%
viability, T/C [22]: 56.6%
viability, T/C [23]: 60.2%
viability, T/C [24]: 63.2%
viability, T/C [25]: 65.7%
viability, T/C [26]: 61.2%
viability, T/C [27]: 52.4%
viability, T/C [28]: 55.6%
viability, T/C [29]: 59.1%
viability, T/C [30]: 56%

O=C(c1cc(Cc2n[nH]c(=O)c3ccccc23)ccc1F)N1CCN(C(=O)C2CC2)CC1 + NC1CC1c1ccc(-c2cccc(O)c2)cc1
IC50 (second compound 0.1 µM): 3.7 µM
IC50 (second compound 0.316 µM): 4.09 µM
IC50 (second compound 1 µM): 4.23 µM
IC50 (second compound 3.16 µM): 4.4 µM
IC50 (second compound 10 µM): 3.09 µM
viability, T/C (second compound 0.1 µM, first compound 0.0316 µM): 90.8%
viability, T/C (second compound 0.1 µM, first compound 0.1 µM): 106%
viability, T/C (second compound 0.1 µM, first compound 0.316 µM): 98.7%
viability, T/C (second compound 0.1 µM, first compound 1 µM): 88.5%
viability, T/C (second compound 0.1 µM, first compound 3.16 µM): 54.5%
viability, T/C (second compound 0.1 µM, first compound 10 µM): 22.7%
viability, T/C (second compound 0.316 µM, first compound 0.0316 µM): 101%
viability, T/C (second compound 0.316 µM, first compound 0.1 µM): 104%
viability, T/C (second compound 0.316 µM, first compound 0.316 µM): 101%
viability, T/C (second compound 0.316 µM, first compound 1 µM): 88%
viability, T/C (second compound 0.316 µM, first compound 3.16 µM): 57.8%
viability, T/C (second compound 0.316 µM, first compound 10 µM): 23.7%
viability, T/C (second compound 1 µM, first compound 0.0316 µM): 106%
viability, T/C (second compound 1 µM, first compound 0.1 µM): 105%
viability, T/C (second compound 1 µM, first compound 0.316 µM): 102%
viability, T/C (second compound 1 µM, first compound 1 µM): 89.5%
viability, T/C (second compound 1 µM, first compound 3.16 µM): 58.9%
viability, T/C (second compound 1 µM, first compound 10 µM): 24%
viability, T/C (second compound 3.16 µM, first compound 0.0316 µM): 102%
viability, T/C (second compound 3.16 µM, first compound 0.1 µM): 105%
viability, T/C (second compound 3.16 µM, first compound 0.316 µM): 101%
viability, T/C (second compound 3.16 µM, first compound 1 µM): 87%
viability, T/C (second compound 3.16 µM, first compound 3.16 µM): 61%
viability, T/C (second compound 3.16 µM, first compound 10 µM): 23.7%
viability, T/C (second compound 10 µM, first compound 0.0316 µM): 85.7%
viability, T/C (second compound 10 µM, first compound 0.1 µM): 84.2%
viability, T/C (second compound 10 µM, first compound 0.316 µM): 83.4%
viability, T/C (second compound 10 µM, first compound 1 µM): 74%
viability, T/C (second compound 10 µM, first compound 3.16 µM): 49.6%
viability, T/C (second compound 10 µM, first compound 10 µM): 18.9%
